According to ChEMBL document CHEMBL4814027, “Synthesis and biological evaluation of naphthoquinone phenacylimidazolium derivatives” (Bioorg Med Chem Lett, 2021):
Calls of active or inactive are those of the source. No cut-off for these calls is given here.

Assays:
[1] = tested on: A549; assay: Cytotoxicity against human A549 cells by MTT assay
[2] = tested on: MCF7; assay: Induction of apoptosis in human MCF7 cells assessed as late apoptotic cells at 0.02 uM after 48 hrs by Annexin V/PI staining based flow cytometric analysis (reference value: 1.23 %); format: functional
[3] = tested on: MCF7; assay: Induction of apoptosis in human MCF7 cells assessed as inhibition of survivin protein expression at 0.02 to 0.2 uM by Western blotting analysis; format: functional, cell-based; details: dose 0.02-0.2 µM
[4] = tested on: MCF7; assay: Induction of apoptosis in human MCF7 cells assessed as early apoptotic cells at 0.2 uM after 48 hrs by Annexin V/PI staining based flow cytometric analysis (reference value: 5.05 %); format: functional
[5] = tested on: MCF7; assay: Induction of cell cycle arrest in human MCF7 cells assessed as accumulation at S phase at 0.02 uM after 48 hrs by flow cytometric analysis (reference value: 24.4 %); format: functional
[6] = tested on: MCF7; assay: Induction of apoptosis in human MCF7 cells assessed as necrotic cells at 0.2 uM after 48 hrs by Annexin V/PI staining based flow cytometric analysis (reference value: 0.017 %); format: functional
[7] = tested on: MCF7; assay: Induction of apoptosis in human MCF7 cells assessed as early apoptotic cells at 0.02 uM after 48 hrs by Annexin V/PI staining based flow cytometric analysis (reference value: 5.05 %); format: functional
[8] = Selectivity ratio of IC50 for mouse L929 cells to IC50 for human HeLa cells; format: toxicity; details: L929 cells versus HeLa cells, read-out: Ratio IC50
[9] = tested on: MCF7; assay: Induction of cell cycle arrest in human MCF7 cells assessed as accumulation at G2/M phase at 0.1 uM after 48 hrs by flow cytometric analysis (reference value: 8.7 %); format: functional
[10] = tested on: MCF7; assay: Induction of cell cycle arrest in human MCF7 cells assessed as accumulation at G2/M phase at 0.02 uM after 48 hrs by flow cytometric analysis (reference value: 8.7 %); format: functional
[11] = tested on: MCF7; assay: Induction of cell cycle arrest in human MCF7 cells assessed as accumulation at G0/G1 phase at 0.2 uM after 48 hrs by flow cytometric analysis (reference value: 66.6 %); format: functional
[12] = tested on: MCF7; assay: Induction of cell cycle arrest in human MCF7 cells assessed as accumulation at G0/G1 phase at 0.02 uM after 48 hrs by flow cytometric analysis (reference value: 66.6 %); format: functional
[13] = tested on: HeLa; assay: Cytotoxicity against human HeLa cells by MTT assay; format: functional, cell-based
[14] = tested on: MCF7; assay: Induction of apoptosis in human MCF7 cells assessed as late apoptotic cells at 0.1 uM after 48 hrs by Annexin V/PI staining based flow cytometric analysis (reference value: 1.23 %); format: functional
[15] = tested on: MCF7; assay: Induction of apoptosis in human MCF7 cells assessed as necrotic cells at 0.1 uM after 48 hrs by Annexin V/PI staining based flow cytometric analysis (reference value: 0.017 %); format: functional
[16] = tested on: MCF7; assay: Induction of apoptosis in human MCF7 cells assessed as viable cells at 0.2 uM after 48 hrs by Annexin V/PI staining based flow cytometric analysis (reference value: 93.7 %); format: functional; details: read-out: Activity
[17] = tested on: MCF7; assay: Induction of apoptosis in human MCF7 cells assessed as viable cells at 0.1 uM after 48 hrs by Annexin V/PI staining based flow cytometric analysis (reference value: 93.7 %); format: functional; details: read-out: Activity
[18] = tested on: MCF7; assay: Induction of apoptosis in human MCF7 cells assessed as increase in cleaved caspase 3 protein expression at 0.02 uM by Western blotting analysis; format: functional, cell-based
[19] = tested on: MCF7; assay: Cytotoxicity against human MCF7 cells by MTT assay; format: functional, cell-based
[20] = tested on: MCF7; assay: Induction of cell cycle arrest in human MCF7 cells assessed as accumulation at G0/G1 phase at 0.1 uM after 48 hrs by flow cytometric analysis (reference value: 66.6 %); format: functional
[21] = tested on: MCF7; assay: Induction of apoptosis in human MCF7 cells assessed as viable cells at 0.02 uM after 48 hrs by Annexin V/PI staining based flow cytometric analysis (reference value: 93.7 %); format: functional; details: read-out: Activity
[22] = tested on: MCF7; assay: Induction of apoptosis in human MCF7 cells assessed as late apoptotic cells at 0.2 uM after 48 hrs by Annexin V/PI staining based flow cytometric analysis (reference value: 1.23 %); format: functional
[23] = Selectivity ratio of IC50 for mouse L929 cells to IC50 for human MCF7 cells; format: toxicity; details: L929 cells versus MCF7 cells, read-out: Ratio IC50
[24] = tested on: MCF7; assay: Induction of cell cycle arrest in human MCF7 cells assessed as accumulation at G2/M phase at 0.2 uM after 48 hrs by flow cytometric analysis (reference value: 8.7 %); format: functional
[25] = tested on: L929; assay: Cytotoxicity against mouse L929 cells by MTT assay
[26] = Selectivity ratio of IC50 for mouse L929 cells to IC50 for human A549 cells; format: toxicity; details: L929 cells versus A549 cells, read-out: Ratio IC50
[27] = tested on: MCF7; assay: Induction of apoptosis in human MCF7 cells assessed as necrotic cells at 0.02 uM after 48 hrs by Annexin V/PI staining based flow cytometric analysis (reference value: 0.017 %); format: functional
[28] = tested on: MCF7; assay: Induction of cell cycle arrest in human MCF7 cells assessed as accumulation at S phase at 0.2 uM after 48 hrs by flow cytometric analysis (reference value: 24.4 %); format: functional
[29] = tested on: MCF7; assay: Induction of apoptosis in human MCF7 cells assessed as early apoptotic cells at 0.1 uM after 48 hrs by Annexin V/PI staining based flow cytometric analysis (reference value: 5.05 %); format: functional
[30] = tested on: MCF7; assay: Induction of cell cycle arrest in human MCF7 cells assessed as accumulation at S phase at 0.1 uM after 48 hrs by flow cytometric analysis (reference value: 24.4 %); format: functional

For `CC(C)Cn1c[n+](CC(=O)c2cccs2)c2c1C(=O)c1ccccc1C2=O.[Br-]`, the IC50 [1] was 0.21 µM, the Activity [2] was 6.12% and the Activity [3] was “Active”. It also gave an Activity [4] of 83.4%, an Activity [5] of 30.1% and an Activity [6] of 0.98%. The Activity [7] was 46%, the selectivity ratio [8] was 21.3 and the Activity [9] was 11.4%. For the same compound, the Activity [10] was 13.1%, the Activity [11] was 46.2% and the Activity [12] was 56.6%. The IC50 [13] was 0.6 µM, the Activity [14] was 4.44% and the Activity [15] was 0.42%. The viability at 0.2 µM [16] was 7.84%, the viability at 0.1 µM [17] was 26% and the Activity [18] was “Active”. For the same compound, the IC50 [19] was 0.05 µM, the Activity [20] was 52.5% and the viability at 0.02 µM [21] was 47.6%. The Activity [22] was 7.77%, the selectivity ratio [23] was 256 and the Activity [24] was 10%. It also gave an IC50 [25] of 12.8 µM, a selectivity ratio [26] of 61 and an Activity [27] of 0.33%. The Activity [28] was 43.7%, the Activity [29] was 69.2% and the Activity [30] was 35.6%.

Work on `Cc1cc(C)c(-n2c[n+](CC(=O)c3ccc([N+](=O)[O-])cc3)c3c2C(=O)c2ccccc2C3=O)c(C)c1` yielded an IC50 [1] of 6.6 µM, a selectivity ratio [8] of 0.59 and an IC50 [13] of 41.7 µM. The IC50 [19] was 12.3 µM, the selectivity ratio [23] was 1.99 and the IC50 [25] was 24.5 µM. It also gave a selectivity ratio [26] of 3.71.

Work on `CC(C)Cn1c[n+](CC(=O)c2ccc(F)cc2)c2c1C(=O)c1ccccc1C2=O` yielded an IC50 [1] of 0.2 µM, a selectivity ratio [8] of 40 and an IC50 [13] of 0.41 µM. It also gave an IC50 [19] of 0.75 µM, a selectivity ratio [23] of 21.9 and an IC50 [25] of 16.4 µM. For the same compound, the selectivity ratio [26] was 82.

Work on `CCCn1c[n+](CC(=O)c2ccc([N+](=O)[O-])cc2)c2c1C(=O)c1ccccc1C2=O` yielded an IC50 [1] of 3 µM, a selectivity ratio [8] of 2.88 and an IC50 [13] of 8.4 µM. For the same compound, the IC50 [19] was 8.3 µM, the selectivity ratio [23] was 2.92 and the IC50 [25] was 24.2 µM. It also gave a selectivity ratio [26] of 8.07.
